Measurements reported in patent publication US7485641B2, “Substituted 3-amino-pyrrolidino-4-lactams” (Pfizer, Inc., priority 2006, dated 2009).
Where a name gives a salt, the structure may show the parent alone.

The compounds below were run against T1, DPP-IV (Homo sapiens, UniProt P27487) (assay: In vitro assay for dipeptidyl peptidase inhibition). Conditions: at 300 nM; n-value given in brackets.
T1 construct: purchased Enzyme Systems Products SPE-01
Assay type: biochemical

T1 sequence (P27487 whole entry, species assumed): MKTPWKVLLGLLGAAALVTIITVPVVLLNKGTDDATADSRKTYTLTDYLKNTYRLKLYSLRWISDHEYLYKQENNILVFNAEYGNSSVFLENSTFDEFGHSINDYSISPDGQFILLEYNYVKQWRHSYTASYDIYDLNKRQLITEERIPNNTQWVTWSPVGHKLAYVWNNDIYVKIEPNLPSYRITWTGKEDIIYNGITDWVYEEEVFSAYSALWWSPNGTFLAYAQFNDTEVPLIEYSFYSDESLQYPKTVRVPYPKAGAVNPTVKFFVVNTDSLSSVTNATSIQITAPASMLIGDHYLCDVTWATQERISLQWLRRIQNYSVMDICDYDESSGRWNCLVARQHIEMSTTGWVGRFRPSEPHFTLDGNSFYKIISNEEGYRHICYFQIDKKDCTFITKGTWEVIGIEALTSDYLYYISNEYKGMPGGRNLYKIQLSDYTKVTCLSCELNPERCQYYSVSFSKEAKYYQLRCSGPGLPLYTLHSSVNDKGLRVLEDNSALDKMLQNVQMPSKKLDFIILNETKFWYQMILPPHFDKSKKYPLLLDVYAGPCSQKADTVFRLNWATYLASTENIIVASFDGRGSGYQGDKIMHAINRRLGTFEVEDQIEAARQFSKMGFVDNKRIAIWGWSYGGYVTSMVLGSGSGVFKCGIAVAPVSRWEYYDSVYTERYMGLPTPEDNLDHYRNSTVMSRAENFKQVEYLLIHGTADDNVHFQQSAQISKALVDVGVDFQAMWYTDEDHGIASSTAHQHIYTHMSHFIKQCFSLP

Compound | DPP-IV Percent Inhibition at 300 nM
N[C@H]1CN(c2ncnc3cc(OS(=O)(=O)c4ccc(F)cc4)ccc23)C[C@@H]1N1CCCCC1=O [Example 142, 4-Fluoro-benzenesulfonic acid 4-[(3S,4S)-3-amino-4-(2-oxo-piperidin-1-yl)-pyrrolidin-1-yl]-quinazolin-7-ylester] | 47/3%(4)

Same assay, conditions: at 300 nM; n-value given in brackets; read-out: DPP-IV Percent Inhibition at 300 nM

Compound | inhibition at 0.3 µM [%]
CC(C)S(=O)(=O)c1ccc2c(N3C[C@H](N)[C@@H](N4CCCCC4=O)C3)ncnc2c1 [Example 138, 1-((3S,4S)-4-amino-1-(7-(isopropylsulfonyl)quinazolin-4-yl)pyrrolidin-3-yl)piperidin-2-one trifluoroacetate] | 24.1
CCS(=O)(=O)c1ccc2c(N3C[C@H](N)[C@@H](N4CCCCC4=O)C3)ncnc2c1 [Example 139, 1-((3S,4S)-4-amino-1-(7-(ethylsulfonyl)quinazolin-4-yl)pyrrolidin-3-yl)piperidin-2-one] | 33.5
N[C@H]1CN(c2ncnc3cc(OS(=O)(=O)c4ccc(F)c(F)c4)ccc23)C[C@@H]1N1CCCCC1=O [Example 144, 4-((3S,4S)-3-amino-4-(2-oxopiperidin-1-yl)pyrrolidin-1-yl)quinazolin-7-yl 3,4-difluorobenzenesulfonate] | 41

Same assay, conditions: n-value given in brackets; read-out: DPP-IV IC50

Compound | IC50 [nM]
N[C@H]1CN(c2ncnc3cc(Oc4cccc(F)c4)ccc23)C[C@@H]1N1CCCCC1=O [Example 120, 1-((3S,4S)-4-amino-1-(7-(3-fluorophenoxy)quinazolin-4-yl)pyrrolidin-3-yl)piperidin-2-oneformate] | 79.8
N#Cc1ccc(Oc2ccc3c(N4C[C@H](N)[C@@H](N5CCCCC5=O)C4)ncnc3c2)nc1 [Example 121, 6-(4-((3S,4S)-3-amino-4-(2-oxopiperidin-1-yl)pyrrolidin-1-yl)quinazolin-7-yloxy)nicotinonitrile] | 183
N[C@H]1CN(c2ncnc3cc(OCC(F)(F)F)ccc23)C[C@@H]1N1CCCCC1=O [Example 122, 1-((3S,4S)-4-amino-1-(7-(2,2,2-trifluoroethoxy)quinazolin-4-yl)pyrrolidin-3-yl)piperidin-2-one] | 148
N[C@H]1CN(c2ncnc3cc(O)ccc23)C[C@@H]1N1CCCCC1=O [Example 123, 1-((3S,4S)-4-amino-1-(7-hydroxyquinazolin-4-yl)pyrrolidin-3-yl)piperidin-2-one trifluoroacetate] | 113
N[C@H]1CN(c2ncnc3cc(OC(F)F)ccc23)C[C@@H]1N1CCCCC1=O [Example 124, 1-((3S,4S)-4-amino-1-(7-(difluoromethoxy)quinazolin-4-yl)pyrrolidin-3-yl)piperidin-2-one] | 33.2
N[C@H]1CN(c2ncnc3cc(OC4CCC4)ccc23)C[C@@H]1N1CCCCC1=O [Example 125, 1-((3S,4S)-4-amino-1-(7-cyclobutoxyquinazolin-4-yl)pyrrolidin-3-yl)piperidin-2-one] | 101
CC(C)(O)c1ccc2c(N3C[C@H](N)[C@@H](N4CCCCC4=O)C3)ncnc2c1 [Example 126, 1-((3S,4S)-4-amino-1-(7-(2-hydroxypropan-2-yl)quinazolin-4-yl)pyrrolidin-3-yl)piperidin-2-one] | 66.8
N[C@H]1CN(c2ncnc3cc(Oc4ccc(C(F)(F)F)cn4)ccc23)C[C@@H]1N1CCCCC1=O [Example 127, 1-((3S,4S)-4-amino-1-(7-(5-(trifluoromethyl)pyridin-2-yloxy)quinazolin-4-yl)pyrrolidin-3-yl)piperidin-2-one] | 137
N[C@H]1CN(c2ncnc3cc(Oc4ccc(F)cc4)ccc23)C[C@@H]1N1CCCCC1=O [Example 128, 1-((3S,4S)-4-amino-1-(7-(4-fluorophenoxy)quinazolin-4-yl)pyrrolidin-3-yl)piperidin-2-one] | 222
COc1ccc(Oc2ccc3c(N4C[C@H](N)[C@@H](N5CCCCC5=O)C4)ncnc3c2)cc1 [Example 129, 1-((3S,4S)-4-amino-1-(7-(4-methoxyphenoxy)quinazolin-4-yl)pyrrolidin-3-yl)piperidin-2-one] | 61.5
N[C@H]1CN(c2ncnc3cc(Sc4cccc(F)c4)ccc23)C[C@@H]1N1CCCCC1=O [Example 130, 1-((3S,4S)-4-amino-1-(7-(3-fluorophenylthio)quinazolin-4-yl)pyrrolidin-3-yl)piperidin-2-oneformate] | 60.5
N[C@H]1CN(c2ncnc3cc(Oc4ccc(OC(F)(F)F)cc4)ccc23)C[C@@H]1N1CCCCC1=O [Example 131, 1-((3S,4S)-4-amino-1-(7-(4-(trifluoromethoxy)phenoxy)quinazolin-4-yl)pyrrolidin-3-yl)piperidin-2-oneformate] | 189
CSc1ccc(Sc2ccc3c(N4C[C@H](N)[C@@H](N5CCCCC5=O)C4)ncnc3c2)cc1 [Example 132] | 720
N[C@H]1CN(c2ncnc3cc(Oc4ccc(OC(F)(F)F)cc4)ccc23)C[C@@H]1N1CCCCC1=O [Example 133, 1-((3S,4S)-4-amino-1-(7-(4-(trifluoromethoxy)phenoxy)quinazolin-4-yl)pyrrolidin-3-yl)piperidin-2-one] | 200
CCS(=O)(=O)Oc1ccc2c(N3C[C@H](N)[C@@H](N4CCCCC4=O)C3)ncnc2c1 [Example 134, 4-((3S,4S)-3-amino-4-(2-oxopiperidin-1-yl)pyrrolidin-1-yl)quinazolin-7-yl ethanesulfonate] | 218
CS(=O)(=O)Oc1ccc2c(N3C[C@H](N)[C@@H](N4CCCCC4=O)C3)ncnc2c1 [Example 135, 4-((3S,4S)-3-amino-4-(2-oxopiperidin-1-yl)pyrrolidin-1-yl)quinazolin-7-yl methanesulfonate] | 128

Compound | IC50 [nM]
CC(C)S(=O)(=O)Oc1ccc2c(N3C[C@H](N)[C@@H](N4CCCCC4=O)C3)ncnc2c1 [Example 136, 4-((3S,4S)-3-amino-4-(2-oxopiperidin-1-yl)pyrrolidin-1-yl)quinazolin-7-yl propane-2-sulfonate] | 135
CC(C)Sc1ccc2c(N3C[C@H](N)[C@@H](N4CCCCC4=O)C3)ncnc2c1 [Example 137, 1-((3S,4S)-4-amino-1-(7-(isopropylthio)quinazolin-4-yl)pyrrolidin-3-yl)piperidin-2-one] | 116
CCSc1ccc2c(N3C[C@H](N)[C@@H](N4CCCCC4=O)C3)ncnc2c1 [Example 140, 1-((3S,4S)-4-amino-1-(7-(ethylthio)quinazolin-4-yl)pyrrolidin-3-yl)piperidin-2-one] | 55
CS(=O)(=O)c1ccc(S(=O)(=O)Oc2ccc3c(N4C[C@H](N)[C@@H](N5CCCCC5=O)C4)ncnc3c2)cc1 [Example 141, 4-((3S,4S)-3-amino-4-(2-oxopiperidin-1-yl)pyrrolidin-1-yl)quinazolin-7-yl 4-(methylsulfonyl)benzenesulfonate] | 278
N[C@H]1CN(c2ncnc3cc(OS(=O)(=O)c4ccc(F)cc4F)ccc23)C[C@@H]1N1CCCCC1=O [Example 143, 4-((3S,4S)-3-amino-4-(2-oxopiperidin-1-yl)pyrrolidin-1-yl)quinazolin-7-yl 2,4-difluorobenzenesulfonate] | 280
N[C@H]1CN(c2nncc3ccccc23)C[C@@H]1N1CCCCC1=O [Example 145, 1-((3S,4S)-4-amino-1-(phthalazin-1-yl)pyrrolidin-3-yl)piperidin-2-one trifluoroacetate] | 224
COc1ccc2c(N3C[C@H](N)[C@@H](N4CCCCC4=O)C3)nncc2c1 [Example 146, 1-((3S,4S)-4-amino-1-(6-methoxyphthalazin-1-yl)pyrrolidin-3-yl)piperidin-2-one] | 46.2
COc1nc(OC)nc(N2C[C@H](N)[C@@H](N3CCCCC3=O)C2)n1 [Example 147, 1-[(3S,4S)-4-Amino-1-(4,6-dimethoxy-[1,3,5]triazin-2-yl)-pyrrolidin-3-yl]-piperidin-2-onetrifluoroacetate] | 133
N[C@H]1CN(c2ncnc3[nH]cnc23)C[C@@H]1N1CCCCC1=O [Example 148, 1-[(3S,4S)-4-Amino-1-(9H-purin-6-yl)-pyrrolidin-3-yl]-piperidin-2-one hydrochloride] | 415
N[C@H]1CN(c2ncnc3c2ncn3CC(F)(F)F)C[C@@H]1N1CCCCC1=O [Example 149, 1-{(2S,4S)-4-Amino-1-[9-(2,2,2-trifluoro-ethyl)-9H-purin-6-yl]-pyrrolidin-3-yl}-piperidin-2-onehydrochloride] | 497
N[C@H]1CN(c2ncnc3c2ncn3C2CC2)C[C@@H]1N1CCCCC1=O [Example 150, 1-[(3S,4S)-4-Amino-1-(9-cyclopropyl-9H-purin-6-yl)-pyrrolidin-3-yl]-piperidin-2-one hydrochloride] | 189
N[C@H]1CN(c2ncnc3c2ncn3C2CC2)C[C@@H]1N1CCCC1=O [Example 151, 1-((3S,4S)-4-Amino-1-(9-cyclopropyl-9H-purin-6-yl)pyrrolidin-3-yl)pyrrolidin-2-one hydrochloride] | > 3000
COc1ccc(Cl)c2c(N3C[C@H](N)[C@@H](N4CCCCC4=O)C3)ncnc12 [Example 152, 1-((3S,4S)-4-amino-1-(5-chloro-8-methoxyquinazolin-4-yl)pyrrolidin-3-yl)piperidin-2-one trifluoroacetate] | > 30000
N[C@H]1CN(C(=O)c2cc3cc(Cl)ccc3o2)C[C@@H]1N1CC(F)(F)CCC1=O [Example 153, 1-((3S,4S)-4-amino-1-(5-chlorobenzofuran-2-carbonyl)pyrrolidin-3-yl)-5,5-difluoropiperidin-2-one] | 78.6
N[C@H]1CN(C(=O)c2cc3cc(Cl)ccc3o2)C[C@@H]1N1CCCCC1=O [Example 154, 1-[(3S,4S)-4-Amino-1-[(5-chloro-1-benzofuran-2-yl)carbonyl]-pyrrolidin-3-yl]-piperidin-2-one hydrochloride] | 92.3
COc1ccc2oc(C(=O)N3C[C@H](N)[C@@H](N4CC(F)(F)CCC4=O)C3)cc2c1 [Example 155, 1-((3S,4S)-4-amino-1-(5-methoxybenzofuran-2-carbonyl)pyrrolidin-3-yl)-5,5-difluoropiperidin-2-one] | 102
